The text below walks through data of patent US11578072B2, “Spiro-lactam NMDA receptor modulators and uses thereof” (Aptinyx Inc., priority 2018, dated 2023).

SMILES strings stand for the structures. Bounds are passed on as bounds.

A short description of series [1]: Microsomal stability (Human). It counts as in vitro ADME. To be noted: human microsomes, after 60 minutes. The method, then:
(§1) Microsomal stability of disclosed compounds was investigated. The following table indicates the percent of compound remaining after 60 minutes.

In another series the target is T1, NMDAR2C (Homo sapiens, UniProt Q14957).
T1 construct: expressed in transfected cells; host or cells: HEK cells (membrane extract)
The experiment in a line: NMDAR agonist assay, [3H]MK-801 binding, NMDAR2C expressing HEK cell membranes. To be noted: 50 μM glutamate. The format is biochemical. The protocol:
(§2) Assays were conducted as described by Moskal et al., “GLYX-13: a monoclonal antibody-derived peptide that acts as an N-methyl-D-aspartate receptor modulator,” Neuropharmacology, 49, 1077-87, 2005. These studies were designed to determine if the test compounds act to facilitate NMDAR activation in NMDAR2A, NMDAR2B, NMDAR2C or NMDAR2D expressing HEK cell membranes as measured by increases in [3H]MK-801 binding.
In the assay, 300 μg of NMDAR expressing HEK cell membrane extract protein was preincubated for 15 minutes at 25° C. in the presence of saturating concentrations of glutamate (50 μM) and varying concentrations of test compound (1×10^−15M-1×10^−7M), or 1 mM glycine. Following the addition of 0.3 μCi of [3H]MK-801 (22.5 Ci/mmol), reactions were again incubated for 15 minutes at 25° C. (nonequilibrium conditions). […]
In analyzing the data, the DPM (disintegrations per minute) of [3H]MK-801 remaining on the filter were measured for each concentration of test compound or for 1 mM glycine. […] The baseline value was determined from the best fit curve of the DPM values modeled using the GraphPad program and the log(agonist) vs. response(three parameters) algorithm was then subtracted from all points in the dataset. The % maximal [3H]MK-801 binding was then calculated relative to that of 1 mM glycine: all baseline subtracted DPM values were divided by the average value for 1 mM glycine. […]

A further series deals with T2, NMDAR2A (Homo sapiens, UniProt Q12879).
T2 construct: expressed in transfected cells; host or cells: HEK cells (membrane extract)
The experiment in a line: NMDAR agonist assay, [3H]MK-801 binding, NMDAR2A expressing HEK cell membranes. To be noted: 50 μM glutamate. The format is biochemical. The method, then:
as §2
In the assay, 300 μg of NMDAR expressing HEK cell membrane extract protein was preincubated for 15 minutes at 25° C. in the presence of saturating concentrations of glutamate (50 μM) and varying concentrations of test compound (1×10^−15M-1×10^−7M), or 1 mM glycine. Following the addition of 0.3 μCi of [3H]MK-801 (22.5 Ci/mmol), reactions were again incubated for 15 minutes at 25° C. (nonequilibrium conditions). Bound and free [3H]MK-801 were separated via rapid filtration using a Brandel apparatus.
In analyzing the data, the DPM (disintegrations per minute) of [3H]MK-801 remaining on the filter were measured for each concentration of test compound or for 1 mM glycine. The DPM values for each concentration of a ligand (N=2) were averaged. The baseline value was determined from the best fit curve of the DPM values modeled using the GraphPad program and the log(agonist) vs. response(three parameters) algorithm was then subtracted from all points in the dataset. The % maximal [3H]MK-801 binding was then calculated relative to that of 1 mM glycine: all baseline subtracted DPM values were divided by the average value for 1 mM glycine. The EC50 and % maximal activity were then obtained from the best fit curve of the % maximal [3H]MK-801 binding data modelled using the GraphPad program and the log(agonist) vs. response(three parameters) algorithm.
The tables below summarize the results for the wild type NMDAR agonists NMDAR2A, NMDAR2B, NMDAR2C, and NMDAR2D, and whether the compound is not an agonist (−), is an agonist (+), or is a strong agonist (++), where column A is based on the % maximal [3H]MK-801 binding relative to 1 mM glycine (−=0; <100%=+; and >100%=++); and column B is based on log EC50 values (0=−; >1×10^−9 M (e.g., −8)=+; and <1×10^−9 M (e.g., −10)++).

Another series concerns Sprague Dawley rats. The experiment in a line: Bennett nerve injury assay (mechanical analgesia, paw withdrawal threshold). The format is in vivo. The method, then:
The Bennett model of mechanical analgesia is used to assess the analgesic effects of compounds as measured by paw withdrawal threshold. Bennett G J, Xie Y K, “A peripheral mononeuropathy in rat that produces disorders of pain sensation like those seen in man,” Pain 33:87-107, 1988. […] Vehicle animals receive the surgery and then receive vehicle rather than test compound. Animals were tested 1 hr, 24 h and 1 wk post-test compound or vehicle administration.
Male 2-3 month old Sprague Dawley rats were used. Harlan was the supplier for all studies. Rats were housed in Lucite cages with aspen wood chip bedding, maintained on a 12:12 light:dark cycle (lights on at 5 AM), and given ad libitum access to Purina lab chow (USA) and tap water throughout the study.
Rats were anesthetized using inhaled isoflurane (2.5%). Sciatic nerve chronic constriction nerve injury surgery was performed as previously described (Bennett and Xie, 1988). An incision (˜1.5 cm in length) was made with a scalpel blade dorsally through skin on the right hind limb, parallel and posterior to femur. Using a small pointed hemostat, the biceps femoris and gluteus superficialis muscles were separated. Using curved blunt forceps, the common sciatic nerve was isolated and exposed. For the mechanical analgesia studies, the whole sciatic nerve was ligated. Using hemostats/forceps and chromic gut (5-0), the nerve was loosely ligated with a square knot; 3 ligatures, 1 mm apart were placed on the nerve. […] Testing occurred approximately 2 weeks post-surgery.
During testing, rats were acclimated to the surface of a suspended wire mesh grid (1 cm×1 cm, with the wire being 0.3 cm in diameter) for 15-20 min. Starting from the smallest, each Von Frey filament was pressed perpendicularly to the plantar surface of the affected (ipsilateral) hind paw until slightly bent and then held for 6 second. If an obvious hind paw withdrawal or a flinching behavior immediately after the withdrawal of the filament was not observed, the next larger filament was used in the same manner. In case of a response, a lower filament was used. This was repeated until six responses were collected.
For all studies, animals were baselined prior to study start to test for allodynia (defined as a paw withdrawal threshold under 5). A subset of animals was tested with gabapentin (150 mg/kg, PO) to ensure at least 50% analgesia. Once it was confirmed animals were ready for study initiation, animals were balanced across groups. All study investigators were blind to treatment conditions. Animals were dosed with 0.1, 1 or 10 mg/kg of test compound via oral gavage (PO), control sets of animals were dosed with gabapentin (150 mg/kg, PO) or vehicle (0.5% Na-CMC in 0.9% sterile saline, PO). Testing occurred 1 h post-dosing with animals retested 24 hrs and 1 week post-dosing. The percent analgesia calculations for each animal were made using the following equation: % analgesia=[(log(x)−y)/((log (z)−y)]*100, where x=the paw withdrawal threshold for the drug-treated animal in grams, y=the average of the log(x) values for the vehicle treated group, and z=the paw withdrawal threshold for naïve animals in grams (historical value of 15 used). The results for Compound AD, where the percentage of analgesia is measured at 1 hour, 24 hours, and 1 week after compound administration are as follows: for 0.1 mg/kg dose: 38.7% at 1 h, 34.5% at 24 h, and 19.7% at 1 wk; for 1 mg/kg dose: 24.1% at 1 h, 26.5% at 24 h, and 13.2% at 1 wk; and for 10 mg/kg dose: 61.2% at 1 h, 45.1% at 24 h, and 39.5% at 1 wk.

The nature of series [2]: Microsomal stability (Rat). It counts as in vitro ADME. To be noted: rat microsomes, after 60 minutes. The protocol:
as §1

T2 sequence (Q12879 23-1464, species assumed, other chains not shown): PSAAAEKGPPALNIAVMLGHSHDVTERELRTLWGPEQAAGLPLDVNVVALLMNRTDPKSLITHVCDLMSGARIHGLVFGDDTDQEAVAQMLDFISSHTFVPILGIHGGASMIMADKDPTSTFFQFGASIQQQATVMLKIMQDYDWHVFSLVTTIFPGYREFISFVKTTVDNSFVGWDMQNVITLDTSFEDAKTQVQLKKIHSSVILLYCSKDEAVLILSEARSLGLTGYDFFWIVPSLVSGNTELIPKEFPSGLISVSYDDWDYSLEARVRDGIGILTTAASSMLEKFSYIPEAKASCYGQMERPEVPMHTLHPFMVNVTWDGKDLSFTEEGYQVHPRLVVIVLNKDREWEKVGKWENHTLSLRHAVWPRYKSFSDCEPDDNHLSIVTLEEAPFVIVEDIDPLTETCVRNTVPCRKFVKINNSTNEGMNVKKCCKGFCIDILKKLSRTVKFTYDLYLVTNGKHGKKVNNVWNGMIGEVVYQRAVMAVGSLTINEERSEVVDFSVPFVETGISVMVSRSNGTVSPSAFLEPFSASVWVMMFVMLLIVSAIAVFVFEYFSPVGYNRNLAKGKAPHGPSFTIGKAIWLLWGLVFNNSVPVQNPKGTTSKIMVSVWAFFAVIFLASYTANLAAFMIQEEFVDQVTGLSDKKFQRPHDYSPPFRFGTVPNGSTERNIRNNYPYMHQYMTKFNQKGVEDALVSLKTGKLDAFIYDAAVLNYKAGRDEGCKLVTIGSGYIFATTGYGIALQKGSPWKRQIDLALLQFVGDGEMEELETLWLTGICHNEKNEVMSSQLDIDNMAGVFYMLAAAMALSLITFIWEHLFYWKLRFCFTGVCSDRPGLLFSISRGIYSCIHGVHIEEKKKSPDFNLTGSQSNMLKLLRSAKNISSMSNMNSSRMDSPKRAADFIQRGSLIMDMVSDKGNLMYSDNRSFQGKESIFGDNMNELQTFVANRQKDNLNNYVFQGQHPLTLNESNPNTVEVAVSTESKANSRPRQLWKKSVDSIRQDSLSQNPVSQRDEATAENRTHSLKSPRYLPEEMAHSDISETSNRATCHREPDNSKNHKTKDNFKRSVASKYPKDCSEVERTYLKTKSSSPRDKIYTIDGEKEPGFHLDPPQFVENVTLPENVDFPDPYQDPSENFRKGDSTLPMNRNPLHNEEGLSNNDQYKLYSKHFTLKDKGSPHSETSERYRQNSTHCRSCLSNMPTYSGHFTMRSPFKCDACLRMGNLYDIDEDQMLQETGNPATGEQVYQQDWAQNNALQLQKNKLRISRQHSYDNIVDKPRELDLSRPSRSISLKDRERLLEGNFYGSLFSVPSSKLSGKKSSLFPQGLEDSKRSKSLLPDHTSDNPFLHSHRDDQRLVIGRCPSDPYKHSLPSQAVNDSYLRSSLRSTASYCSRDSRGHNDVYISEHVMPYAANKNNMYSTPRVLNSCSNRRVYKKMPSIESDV
T1 sequence (Q14957 20-1233, species assumed, other chains not shown): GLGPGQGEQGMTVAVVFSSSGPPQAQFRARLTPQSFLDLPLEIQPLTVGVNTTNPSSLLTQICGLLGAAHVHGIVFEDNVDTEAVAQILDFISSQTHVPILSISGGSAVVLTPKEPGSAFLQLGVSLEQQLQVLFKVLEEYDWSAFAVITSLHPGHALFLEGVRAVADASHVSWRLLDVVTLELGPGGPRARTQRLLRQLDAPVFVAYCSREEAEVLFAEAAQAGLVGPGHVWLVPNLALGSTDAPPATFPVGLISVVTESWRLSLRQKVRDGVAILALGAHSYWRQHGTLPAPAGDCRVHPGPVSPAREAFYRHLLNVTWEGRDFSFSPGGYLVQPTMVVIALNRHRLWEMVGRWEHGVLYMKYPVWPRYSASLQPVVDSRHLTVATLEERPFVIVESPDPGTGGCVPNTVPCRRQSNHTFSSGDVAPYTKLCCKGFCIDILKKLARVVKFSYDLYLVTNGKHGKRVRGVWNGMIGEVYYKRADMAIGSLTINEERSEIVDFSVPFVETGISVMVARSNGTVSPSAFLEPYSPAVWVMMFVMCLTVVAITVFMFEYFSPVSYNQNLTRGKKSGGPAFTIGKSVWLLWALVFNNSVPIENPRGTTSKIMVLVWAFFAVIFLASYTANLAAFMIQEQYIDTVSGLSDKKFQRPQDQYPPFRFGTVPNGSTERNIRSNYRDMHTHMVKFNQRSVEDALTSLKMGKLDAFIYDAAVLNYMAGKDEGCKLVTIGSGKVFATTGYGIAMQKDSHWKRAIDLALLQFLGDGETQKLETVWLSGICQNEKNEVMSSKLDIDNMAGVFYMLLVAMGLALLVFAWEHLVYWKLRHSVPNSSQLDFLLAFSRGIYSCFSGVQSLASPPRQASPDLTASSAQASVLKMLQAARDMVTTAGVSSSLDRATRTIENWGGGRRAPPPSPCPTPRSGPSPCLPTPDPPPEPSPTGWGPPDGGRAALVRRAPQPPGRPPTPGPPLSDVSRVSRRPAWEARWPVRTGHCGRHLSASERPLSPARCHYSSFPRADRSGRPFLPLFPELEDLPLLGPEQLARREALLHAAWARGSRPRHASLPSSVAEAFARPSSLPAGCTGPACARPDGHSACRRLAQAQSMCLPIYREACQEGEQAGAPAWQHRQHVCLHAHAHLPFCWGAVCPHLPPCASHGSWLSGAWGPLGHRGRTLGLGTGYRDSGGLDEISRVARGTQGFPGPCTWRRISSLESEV

One may read the EC50 as the midpoint of the concentration-response curve. For the compound `CC(C)C(=O)N1CCC2(CCCNC2=O)CC1` [Compound AD, 9-isobutyryl-2,9-diazaspiro[5.5]undecan-1-one], the “Microsomal (Human): percent of compound remaining” value in series [1] is 100%. Besides, the “NMDAR2C A: % maximal [3H]MK-801 binding relative to 1 mM glycine” value at NMDAR2C is “+ (<100%=+)”. The concentration giving a half-maximal response (EC50) on NMDAR2C (read-out: NMDAR2C B: log EC50 (converted)) and at NMDAR2A (read-out: NMDAR2A B: log EC50 (converted)) was below 1 nM each time. Besides, the “NMDAR2A A: % maximal [3H]MK-801 binding relative to 1 mM glycine” value on NMDAR2A is on record as “+ (<100%=+)”. The “% analgesia” value with Sprague Dawley rats (0.1 mg/kg PO, 1 wk) turned out to be 19.7%; in the series on Sprague Dawley rats (0.1 mg/kg PO, 1 h) it was 38.7%; with Sprague Dawley rats (0.1 mg/kg PO, 24 h), 34.5%; in the series on Sprague Dawley rats (1 mg/kg PO, 1 wk), 13.2%; in the series on Sprague Dawley rats (1 mg/kg PO, 1 h) it was 24.1%; in the series with Sprague Dawley rats (1 mg/kg PO, 24 h) it was 26.5%. Besides, the “% analgesia” value in the series with Sprague Dawley rats (10 mg/kg PO, 1 wk) came to 39.5%; with Sprague Dawley rats (10 mg/kg PO, 1 h), 61.2%; in the series on Sprague Dawley rats (10 mg/kg PO, 24 h), 45.1%. Further, the “Microsomal (Rat): percent of compound remaining” value in series [2] is reported as 100%.
